This note sets out measurements from patent US9045490B2, “Use of parthenolide derivatives as antileukemic and cytotoxic agents” (University of Kentucky, priority 2003, dated 2015).

One assay concerns primary acute myelogenous leukemia (AML) cells. Kind of assay: Assay for antileukemic activity (Annexin V/7-AAD apoptosis analysis by flow cytometry). It is filed as cell-based. The settings on record: 2.5 μM, 24 hours of culture. The protocol:
For apoptosis analysis, one million primary acute myelogenous leukemia (AML) cells were washed with cold PBS and resuspended in 200 microliters of Annexin binding buffer (10 mM HEPES/NaOH pH 7.4; 140 mM NaCl; 2.5 mM CaCl2). Annexin V-FITC (Pharmingen) and 0.25 mg/mL 7-AAD (7-aminoactinomycin D, Molecular Probes, CA) were added and the tubes were incubated at room temperature in the dark for 15 minutes. Cells were then diluted with 200 microliters of Annexin binding buffer and analyzed immediately by flow cytometry. Viable cells were identified as failing to label with Annexin V or 7-AAD. Cells beginning to die label with Annexin V, and as membrane integrity is lost, will also label with 7-AAD. […] Data are normalized to untreated control specimens. The data are in Table 1 for aminoparthenolide derivatives and Table 2 for the salts of some aminoparthenolides.
In general terms: Flow cytometry measures light scatter and fluorescence of single cells or particles in a stream.
Regarding `C/C1=C\CC[C@@]2(C)O[C@H]2[C@H]2OC(=O)[C@H](CN3CCCCC3)[C@@H]2CC1` [PipPT, 11S,11,13-Dihydro,13-(piperidin-1-yl)parthenolide], the Antileukemic activity is on record as 2.5 μM, 71%.

Still in this assay, the particulars now being: 5 μM, 24 hours of culture.
For “11S,11,13-Dihydro,13-(pyrrolidin-1-yl)parthenolide [PyrPT]”, the Antileukemic activity is recorded as 5 μM, 23%.

As to `C/C1=C\CC[C@@]2(C)O[C@H]2[C@H]2OC(=O)[C@H](CN3CCCCC3)[C@@H]2CC1` [PipPT, 11S,11,13-Dihydro,13-(piperidin-1-yl)parthenolide], the Antileukemic activity entry is recorded as “v5 μM, 91%”.

The same assay, now with this note: 10 μM, 24 hours of culture, normalized to untreated control.
As to “11S,11,13-Dihydro,13-(4-methylpiperidin-1-yl)parthenolide [Compound 4MePipPT]”, the Antileukemic activity is reported as 10 μM, 83%.

Turning to “11S,11,13-Dihydro,13-(pyrrolidin-1-yl)parthenolide [PyrPT]”, the Antileukemic activity is given as 10 μM, 85%.

As for “11S,11,13-Dihydro,13-(tert-butylamino)parthenolide [tBAPT]”, the Antileukemic activity was 10 μM, 20%.

On to “11S,11,13-Dihydro,13-diethylaminoparthenolide [DEAPT]”, for which the Antileukemic activity is given as 10 μM, 60%.

Take “11S,11,13-Dihydro,13-methyl pentyl aminoparthenolide”: the Antileukemic activity is listed as 10 μM, 45%.

Regarding “11S,11,13-Dihydro,13-methylbutyl aminoparthenolide”, the Antileukemic activity is given as 10 μM, 68%.

As for “11S,11,13-dihydro,13-(piperidin-1-yl)parthenolide hydrochloride”, the Antileukemic activity is reported as 10 μM, 88%.

As for “11S, 11,13-Dihydro,13-(4-methylpiperidin-1-yl)parthenolide hydrochloride”, the Antileukemic activity is given as 10 μM, 62%.

As to `C=C1CCC2C(CN(CC)CC)C(=O)OC2C2C(=C)CCC12` (centres unmarked) [11H, 13-(N,N-Diethylamino)-dehydrocostuslactone], the Antileukemic activity is 10 μM, 5%.

On to `C=C1CCC2C(CN(C)C)C(=O)OC2C2C(=C)CCC12` (centres unmarked) [11H, 13-(N,N-Dimethylamino)-dehydrocostuslactone], for which the Antileukemic activity is on record as 10 μM,12%.

In the case of `C=C1CCC2C(CN(C)CCCC)C(=O)OC2C2C(=C)CCC12` (centres unmarked) [11H, 13-(N-Butyl-N-methylamino)-dehydrocostuslactone], the Antileukemic activity is given as 10 μM, 8%.

For the molecule `C=CCN(CC=C)CC1C(=O)OC2C1CCC(=C)C1CCC(=C)C12` (centres unmarked) [11H, 13-(N-Diallyl)-dehydrocostuslactone], the Antileukemic activity is 10 μM, 2%.

Take `C=C1CCC2C(CN(CC)Cc3ccccc3)C(=O)OC2C2C(=C)CCC12` (centres unmarked) [11H, 13-(N-Ethyl-N-benzyl)-dehydrocostuslactone]: the Antileukemic activity is recorded as 10 μM, 13%.

As to `C=C1CCC2C(CN(C)CCCCC)C(=O)OC2C2C(=C)CCC12` (centres unmarked) [11H, 13-(N-Methyl-N-pentylamino)-dehydrocostuslactone], the Antileukemic activity was 10 μM, 0%.

As to `C=C1CCC2C(CN(C)CCC)C(=O)OC2C2C(=C)CCC12` (centres unmarked) [11H, 13-(N-Methyl-N-propylamino)-dehydrocostuslactone], the Antileukemic activity is reported as 10 μM, 1%.

`C=C1CCC2C(CN3CCOCC3)C(=O)OC2C2C(=C)CCC12` (centres unmarked) [11H, 13-(N-Morpholine)-dehydrocostuslactone]: the Antileukemic activity is listed as 10 μM, 10%.

Consider `C=C1CCC2C(CN3CCCCC3)C(=O)OC2C2C(=C)CCC12` (centres unmarked) [11H, 13-(N-Piperidine)-dehydrocostuslactone], for which the Antileukemic activity is 10 μM, 14%.

In the case of `C=C1CCC2C(CNCCC)C(=O)OC2C2C(=C)CCC12` (centres unmarked) [11H, 13-(N-Propylamino)-dehydrocostuslactone], the Antileukemic activity is recorded as 10 μM, 24%.

On to `C=C1CCC2C(CN3CCCC3)C(=O)OC2C2C(=C)CCC12` (centres unmarked) [11H, 13-(N-Pyrrolidine)-dehydrocostuslactone], for which the Antileukemic activity is 10 μM, 20%.

Turning to `CC1=CCCC2(C)OC2C2OC(=O)C(CNC3CC3)C2CC1` (centres unmarked) [11S,11,13-Dihydro,13-cyclopropylaminoparthenolide], the Antileukemic activity is on record as 10 μM, −6%.

Regarding `CCNCC1C(=O)OC2C1CCC(C)=CCCC1(C)OC21` (centres unmarked) [11S,11,13-Dihydro,13-ethylaminoparthenolide], the Antileukemic activity is 10 μM, 2%.

Consider `CNC[C@H]1C(=O)O[C@H]2[C@H]1CC/C(C)=C/CC[C@@]1(C)O[C@@H]21` [11S,11,13-Dihydro,13-methylaminoparthenolide], for which the Antileukemic activity is recorded as 10 μM, 4%.

As to `C#CCNCC1C(=O)OC2C1CCC(C)=CCCC1(C)OC21` (centres unmarked) [11S,11,13-Dihydro,13-propargylaminoparthenolide], the Antileukemic activity was 10 μM, 7%.

For the molecule `CC1=CCCC2(C)OC2C2OC(=O)C(CN3CCCC3)C2CC1.Cl` (centres unmarked) [11S, 11,13-Dihydro,13-(pyrrolidin-1-yl)parthenolide hydrochloride], the Antileukemic activity is given as 10 μM, 85%.

On to `C/C1=C\CC[C@@]2(C)O[C@H]2[C@H]2OC(=O)[C@H](CN3CCN(C)CC3)[C@@H]2CC1` [Compound 4MePizPT, 11S,11,13-Dihydro,13-(4-methylpiperazin-1-yl)parthenolide], for which the Antileukemic activity is on record as 10 μM, 7%.

On to `CC1=CCCC2(C)OC2C2OC(=O)C(CN3CCCCCCC3)C2CC1` (centres unmarked) [HeptaMePipt, 11S,11,13-Dihydro,13-(heptamethyleneimin-1-yl)parthenolide], for which the Antileukemic activity is on record as 10 μM, 10%.

For the molecule `CC1=CCCC2(C)OC2C2OC(=O)C(CN3CCCCCC3)C2CC1` (centres unmarked) [HomoPipPT, 11S,11,13-Dihydro,13-(homopiperidin-1-yl)parthenolide], the Antileukemic activity is recorded as 10 μM, 40%.

The same assay, now with this note: 20 μM, 24 hours of culture.
“11S,11,13-Dihydro,13-(morpholin-1-yl)parthenolide [MorPT]”: the Antileukemic activity is recorded as 20 μM, 20%.

For “11S,11,13-Dihydro,13-(pyrrolidin-1-yl)parthenolide [PyrPT]”, the Antileukemic activity was 20 μM, 95%.
